Structures are written as SMILES.

This assay concerns IMR32 cells. Briefly: Amyloid β protein in culture supernatant of IMR32 cells after addition of urotensin II, by enzyme immunoassay. Type of assay: cell-based. As to conditions: cultured 24 hours. As for the experimental part:
Test compound 1 was added to IMR32 cells at various concentrations (μM) 10 minutes before addition of 10 nM of urotensin II. Then, urotensin II was added in the presence or absence of test compound 1, the mixture was cultured for 24 hours, and the amount of amyloid β protein in the supernatant of the culture was determined by enzyme immunoassay (Biochemistry, Vol.34, No.32, pp. 10272-10278, (1995)). Test compound 2 as described hereinafter (the compound of Synthesis Example 5) was used and added at a concentration of 1 nM, and the amount of amyloid β protein was determined in the same manner as that of Experimental Example 1. Namely, IMR32 cells were used and test compound 2 was added at a concentration of 1 nM 10 minutes before addition of 10 nM of urotensin II. After addition of urotensin II, the mixture was cultured for 24 hours and the amount of amyloid β protein in the supernatant of the culture was determined by enzyme immunoassay.

With `Cc1ccc2nc3c(c(N)c2c1)CCN3Cc1ccccc1` [test compound 1], the “suppression of increase in the selective secretion of amyloid β40 by urotensin II” value (test compound at various concentrations (μM) added 10 minutes before 10 nM urotensin II, FIG. 1) was “concentration-dependently suppressed”. Turning to `Cl.NS(=O)(=O)c1ccc(CCN(Cc2cccc(-c3cccc(C(=O)NCCN4CCCC4)c3)c2)C(=O)CCCc2ccccc2)cc1` [test compound 2, 3′-{({2-[4-(Aminosulfonyl)phenyl]ethyl}[4-phenylbutanoyl]amino)methyl}-N-[2-(1-pyrrolidinyl)ethyl][1,1′-biphenyl]-3-carboxamide Hydrochloride], under “test compound at 1 nM added 10 minutes before 10 nM urotensin II, FIG. 2”, the “suppression of increase of amyloid β40 by urotensin II” value was “completely suppressed”.

(Values after patent US20030207863A1, “Preventives and remedies for central nervous system diseases” (priority 2000, published 2003).)
